Experiments:
Acetylcholinesterase = Acetylcholinesterase (Homo sapiens, UniProt P22303); test: Inhibition of AChE (unknown origin) using acetylthiocholine iodide substrate by Ellman's method based spectrophotometry
Cholinesterase = Cholinesterase (Equus caballus, UniProt P81908); test: Inhibition of equine serum BuChE using S-butyrylthiocholine chloride substrate by Ellman's method based spectrophotometry
[1] = Selectivity index, ratio of IC50 for AChE (unknown origin) to IC50 for equine serum BuChE
[2] = Selectivity index, ratio of IC50 for equine serum BuChE to IC50 for AChE (unknown origin)

Cholinesterase, sequence (P81908 whole entry): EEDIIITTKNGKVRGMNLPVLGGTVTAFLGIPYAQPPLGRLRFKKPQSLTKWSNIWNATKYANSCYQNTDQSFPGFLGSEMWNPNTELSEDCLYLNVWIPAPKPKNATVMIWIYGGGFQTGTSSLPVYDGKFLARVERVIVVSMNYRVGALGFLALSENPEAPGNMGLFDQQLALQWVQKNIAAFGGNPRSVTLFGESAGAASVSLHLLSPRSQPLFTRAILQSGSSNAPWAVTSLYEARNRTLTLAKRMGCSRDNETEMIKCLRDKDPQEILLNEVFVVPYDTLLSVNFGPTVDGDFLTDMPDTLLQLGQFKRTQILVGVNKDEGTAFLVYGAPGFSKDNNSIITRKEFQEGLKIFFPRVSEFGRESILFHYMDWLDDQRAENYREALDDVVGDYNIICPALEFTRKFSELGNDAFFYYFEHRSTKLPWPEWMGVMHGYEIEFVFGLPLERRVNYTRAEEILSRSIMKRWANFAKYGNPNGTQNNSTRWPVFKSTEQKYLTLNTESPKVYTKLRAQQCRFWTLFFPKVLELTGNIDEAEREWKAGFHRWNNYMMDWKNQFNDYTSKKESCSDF
Acetylcholinesterase, sequence (P22303 whole entry): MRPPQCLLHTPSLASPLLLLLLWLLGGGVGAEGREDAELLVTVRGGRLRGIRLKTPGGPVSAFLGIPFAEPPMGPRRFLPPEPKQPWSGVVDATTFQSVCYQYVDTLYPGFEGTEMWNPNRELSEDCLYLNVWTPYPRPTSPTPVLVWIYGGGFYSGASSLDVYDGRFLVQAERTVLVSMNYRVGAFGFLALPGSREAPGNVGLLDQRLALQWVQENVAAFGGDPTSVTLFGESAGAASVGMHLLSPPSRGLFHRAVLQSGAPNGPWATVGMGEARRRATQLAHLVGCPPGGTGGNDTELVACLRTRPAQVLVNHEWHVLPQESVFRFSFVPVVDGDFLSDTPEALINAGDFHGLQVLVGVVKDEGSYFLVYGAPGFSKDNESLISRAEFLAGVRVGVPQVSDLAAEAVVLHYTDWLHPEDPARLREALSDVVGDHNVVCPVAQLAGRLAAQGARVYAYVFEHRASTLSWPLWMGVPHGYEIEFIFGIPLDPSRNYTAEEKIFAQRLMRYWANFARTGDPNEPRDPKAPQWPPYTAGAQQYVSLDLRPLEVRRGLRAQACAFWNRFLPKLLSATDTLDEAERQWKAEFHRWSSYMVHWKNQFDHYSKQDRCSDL

| Structure (SMILES) | IC50 (Acetylcholinesterase) [µM] | IC50 (Cholinesterase) [µM] | Ratio IC50 [1] | Ratio IC50 [2] |
| --- | --- | --- | --- | --- |
| C=CC(=O)N1C/C(=C\c2ccc(Cl)cc2)C(=O)/C(=C/c2ccc(Cl)cc2)C1 | 22 | 38.2 | 0.58 | 1.73 |
| C=CC(=O)N1C/C(=C\c2ccccc2)C(=O)/C(=C/c2ccccc2)C1 | 17.7 | 22.1 | 0.8 | 1.25 |
| C=CC(=O)N1C/C(=C\c2ccccc2Cl)C(=O)/C(=C/c2ccccc2Cl)C1 | 16.3 | 36.6 | 0.45 | 2.24 |
| C=CC(=O)N1C/C(=C\c2ccccc2F)C(=O)/C(=C/c2ccccc2F)C1 | 11.8 | 54 | 0.22 | 4.58 |
| C=CC(=O)N1C/C(=C\c2cccc([N+](=O)[O-])c2)C(=O)/C(=C/c2cccc([N+](=O)[O-])c2)C1 | 9.76 | 51.2 | 0.19 | 5.24 |
| C=CC(=O)N1C/C(=C\c2ccccc2C)C(=O)/C(=C/c2ccccc2C)C1 | 17.4 | 30 | 0.58 | 1.73 |
| C=CC(=O)N1C/C(=C\c2ccccc2OC)C(=O)/C(=C/c2ccccc2OC)C1 | 8.72 | 28.9 | 0.3 | 3.32 |
| C=CC(=O)N1C/C(=C\c2ccc(Cl)cc2Cl)C(=O)/C(=C/c2ccc(Cl)cc2Cl)C1 | 15.8 | 29.4 | 0.54 | 1.86 |
| C=CC(=O)N1C/C(=C\c2cccc3ccccc23)C(=O)/C(=C/c2cccc3ccccc23)C1 | 13.8 | 23.1 | 0.6 | 1.67 |
| C=CC(=O)N1C/C(=C\c2ccc(F)cc2)C(=O)/C(=C/c2ccc(F)cc2)C1 | 15.1 | 30.6 | 0.49 | 2.02 |
| C=CC(=O)N1C/C(=C\c2ccc(C)cc2)C(=O)/C(=C/c2ccc(C)cc2)C1 | 18.1 | 35.1 | 0.51 | 1.94 |
| Cc1ccc(/C=C2\CN(C(=O)C[C@H]3C[C@H]4CCCN4[C@]34C(=O)Nc3ccccc34)C[C@@]3(C[C@H]4CCCN4[C@@]34C(=O)Nc3ccccc34)C2=O)cc1 (racemic) | 19.6 | 17.9 | 1.1 | 0.91 |
| O=C(C[C@H]1C[C@H]2CCCN2[C@]12C(=O)Nc1ccccc12)N1C/C(=C\c2ccc(Cl)cc2Cl)C(=O)[C@]2(C[C@H]3CCCN3[C@@]23C(=O)Nc2ccccc23)C1 (racemic) | 6.96 | 9.45 | 0.74 | 1.36 |
| O=C(C[C@H]1C[C@H]2CCCN2[C@]12C(=O)Nc1ccccc12)N1C/C(=C\c2cccc([N+](=O)[O-])c2)C(=O)[C@]2(C[C@H]3CCCN3[C@@]23C(=O)Nc2ccccc23)C1 (racemic) | 26.6 | 24.3 | 1.1 | 0.91 |
| O=C(C[C@H]1C[C@H]2CCCN2[C@]12C(=O)Nc1ccccc12)N1C/C(=C\c2ccccc2F)C(=O)[C@]2(C[C@H]3CCCN3[C@@]23C(=O)Nc2ccccc23)C1 (racemic) | 24.6 | 9.09 | 2.7 | 0.37 |
| O=C(C[C@H]1C[C@H]2CCCN2[C@]12C(=O)Nc1ccccc12)N1C/C(=C\c2ccccc2Cl)C(=O)[C@]2(C[C@H]3CCCN3[C@@]23C(=O)Nc2ccccc23)C1 (racemic) | 13.6 | 11.7 | 1.16 | 0.86 |
| O=C(C[C@H]1C[C@H]2CCCN2[C@]12C(=O)Nc1ccccc12)N1C/C(=C\c2ccc(F)cc2)C(=O)[C@]2(C[C@H]3CCCN3[C@@]23C(=O)Nc2ccccc23)C1 (racemic) | 23.7 | 8.29 | 2.86 | 0.35 |

| Structure (SMILES) | IC50 (Acetylcholinesterase) [µM] | IC50 (Cholinesterase) [µM] | Ratio IC50 [1] | Ratio IC50 [2] |
| --- | --- | --- | --- | --- |
| O=C(C[C@H]1C[C@H]2CCCN2[C@]12C(=O)Nc1ccccc12)N1C/C(=C\c2ccc(Cl)cc2)C(=O)[C@]2(C[C@H]3CCCN3[C@@]23C(=O)Nc2ccccc23)C1 (racemic) | 7.92 | 10.9 | 0.73 | 1.38 |
| COc1ccccc1/C=C1\CN(C(=O)C[C@H]2C[C@H]3CCCN3[C@]23C(=O)Nc2ccccc23)C[C@@]2(C[C@H]3CCCN3[C@@]23C(=O)Nc2ccccc23)C1=O (racemic) | 11.4 | 19.2 | 0.59 | 1.68 |
| Cc1ccccc1/C=C1\CN(C(=O)C[C@H]2C[C@H]3CCCN3[C@]23C(=O)Nc2ccccc23)C[C@@]2(C[C@H]3CCCN3[C@@]23C(=O)Nc2ccccc23)C1=O (racemic) | 27.5 | 13 | 2.12 | 0.47 |
| O=C(C[C@H]1C[C@H]2CCCN2[C@]12C(=O)Nc1ccccc12)N1C/C(=C\c2ccccc2)C(=O)[C@]2(C[C@H]3CCCN3[C@@]23C(=O)Nc2ccccc23)C1 (racemic) | 19.7 | 18.2 | 1.08 | 0.93 |
| O=C1/C(=C/c2cccc3ccccc23)CN(C(=O)C[C@H]2C[C@H]3CCCN3[C@]23C(=O)Nc2ccccc23)C/C1=C\c1cccc2ccccc12 (racemic) | 6.76 | 11.8 | 0.57 | 1.74 |
| O=C1/C(=C/c2ccccc2)CN(C(=O)C[C@H]2C[C@H]3CCCN3[C@]23C(=O)Nc2ccccc23)C/C1=C\c1ccccc1 (racemic) | 17.5 | 16.3 | 1.07 | 0.93 |
| Cc1ccccc1/C=C1\CN(C(=O)C[C@H]2C[C@H]3CCCN3[C@]23C(=O)Nc2ccccc23)C/C(=C\c2ccccc2C)C1=O (racemic) | 12.5 | 17.8 | 0.7 | 1.43 |
| COc1ccccc1/C=C1\CN(C(=O)C[C@H]2C[C@H]3CCCN3[C@]23C(=O)Nc2ccccc23)C/C(=C\c2ccccc2OC)C1=O (racemic) | 15.9 | 9.41 | 1.69 | 0.59 |
| O=C1/C(=C/c2ccccc2Cl)CN(C(=O)C[C@H]2C[C@H]3CCCN3[C@]23C(=O)Nc2ccccc23)C/C1=C\c1ccccc1Cl (racemic) | 11.9 | 19.7 | 0.6 | 1.66 |
| O=C1/C(=C/c2ccccc2F)CN(C(=O)C[C@H]2C[C@H]3CCCN3[C@]23C(=O)Nc2ccccc23)C/C1=C\c1ccccc1F (racemic) | 34.4 | 3.5 | 9.82 | 0.1 |
| O=C1/C(=C/c2cccc([N+](=O)[O-])c2)CN(C(=O)C[C@H]2C[C@H]3CCCN3[C@]23C(=O)Nc2ccccc23)C/C1=C\c1cccc([N+](=O)[O-])c1 (racemic) | 5.99 | 18.1 | 0.33 | 3.03 |
| O=C1/C(=C/c2ccc(Cl)cc2Cl)CN(C(=O)C[C@H]2C[C@H]3CCCN3[C@]23C(=O)Nc2ccccc23)C/C1=C\c1ccc(Cl)cc1Cl (racemic) | 4.11 | 21.2 | 0.19 | 5.15 |
| Cc1ccc(/C=C2\CN(C(=O)C[C@H]3C[C@H]4CCCN4[C@]34C(=O)Nc3ccccc34)C/C(=C\c3ccc(C)cc3)C2=O)cc1 (racemic) | 20.1 | 25.2 | 0.8 | 1.26 |
| O=C1/C(=C/c2ccc(Cl)cc2)CN(C(=O)C[C@H]2C[C@H]3CCCN3[C@]23C(=O)Nc2ccccc23)C/C1=C\c1ccc(Cl)cc1 (racemic) | 3.36 | 32.3 | 0.1 | 9.6 |
| O=C1/C(=C/c2ccc(F)cc2)CN(C(=O)C[C@H]2C[C@H]3CCCN3[C@]23C(=O)Nc2ccccc23)C/C1=C\c1ccc(F)cc1 (racemic) | 19.8 | 3.99 | 4.97 | 0.2 |
| O=C(C[C@H]1C[C@H]2CCCN2[C@]12C(=O)Nc1ccccc12)N1C/C(=C\c2cccc3ccccc23)C(=O)[C@]2(C[C@H]3CCCN3[C@@]23C(=O)Nc2ccccc23)C1 (racemic) | 20.6 | 6.42 | 3.21 | 0.31 |
